Experimental findings from US9670213B2, “Pteridine ketone derivative and applications thereof as EGFR, BLK, and FLT3 inhibitor” (EAST CHINA UNIVERSITY OF SCIENCE AND TECHNOLOGY, priority 2012, dated 2017) are described below.

The structures appear in SMILES notation. A value given as a limit tells only on which side of the number the result lay.

What all share (format): biochemical
One test has as its target EGFR-L858R/T790M (Homo sapiens (Human), UniProt P00533, L858R/T790M). The test is described as follows: In vitro EGFR kinase activity assay (Z'-Lyte).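 Also: Cell-free kinase reaction with peptide substrate and ATP, 1.5 h at room temperature, development cleaving unphosphorylated peptide, 10-point dilution 0.051–1000 nM, phosphopeptide as 100% phosphorylation control.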 The following applies: read-out: Inhibitory activity on EGFR kinase (IC50, nM) T790M/L858R.
The target in the next test is BLK (Homo sapiens (Human), UniProt P51451). The test is described as follows: BLK kinase activity assay (Caliper). As to conditions: read-out: Inhibitory activity on kinase (IC50, nM) BLK.
Sequence of BLK (P51451 whole entry): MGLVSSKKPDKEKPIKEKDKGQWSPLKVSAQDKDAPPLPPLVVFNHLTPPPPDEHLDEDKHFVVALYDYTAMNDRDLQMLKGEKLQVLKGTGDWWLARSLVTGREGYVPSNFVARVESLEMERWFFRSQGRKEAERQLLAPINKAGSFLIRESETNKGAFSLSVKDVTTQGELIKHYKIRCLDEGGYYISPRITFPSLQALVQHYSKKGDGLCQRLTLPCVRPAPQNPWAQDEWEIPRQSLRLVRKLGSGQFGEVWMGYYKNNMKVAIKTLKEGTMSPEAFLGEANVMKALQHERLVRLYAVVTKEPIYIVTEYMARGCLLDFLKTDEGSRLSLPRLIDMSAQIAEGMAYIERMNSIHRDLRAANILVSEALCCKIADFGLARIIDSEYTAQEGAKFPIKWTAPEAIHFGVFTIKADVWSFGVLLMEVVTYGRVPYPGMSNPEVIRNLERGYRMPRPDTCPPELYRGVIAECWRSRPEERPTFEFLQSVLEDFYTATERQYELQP
The target in another test is FLT3 (Homo sapiens (Human), UniProt P36888). Nature of the test: FLT3 kinase activity assay (Caliper). The following applies: read-out: Inhibitory activity on kinase (IC50, nM) FLT3.
The target of another test is ERK1 (Homo sapiens (Human), UniProt P27361). The test is described as follows: Kinase selectivity analysis (Caliper mobility shift assay). As to conditions: for inhibition at 1 µM: read-out: % inhibition (1 μM), ERK1, 1 μM; for inhibition at 10 µM: read-out: % inhibition (10 μM), ERK1, 10 μM. How it is done: (§1) Kinase selectivity analysis: kinase selectivity experiment was performed by Shanghai ChemPartner using Caliper assay screening platform. All of kinases and other materials were purchased from commercial companies.
Sequence of ERK1 (P27361 whole entry, species assumed): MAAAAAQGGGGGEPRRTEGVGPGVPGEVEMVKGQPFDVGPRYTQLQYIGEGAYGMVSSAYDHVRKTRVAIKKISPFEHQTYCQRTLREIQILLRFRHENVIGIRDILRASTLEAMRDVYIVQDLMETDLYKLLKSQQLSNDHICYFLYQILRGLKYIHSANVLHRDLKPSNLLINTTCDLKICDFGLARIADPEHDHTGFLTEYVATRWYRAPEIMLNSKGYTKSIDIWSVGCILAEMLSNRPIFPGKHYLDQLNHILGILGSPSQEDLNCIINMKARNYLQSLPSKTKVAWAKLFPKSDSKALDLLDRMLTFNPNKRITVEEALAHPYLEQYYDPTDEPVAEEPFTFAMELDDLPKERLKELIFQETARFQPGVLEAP
(§2) 3. Preparation of assay plate: 5 μL of solution from each well of the 96-well temporary plate was added into a 384-well plate, and the experiment was independently repeated.
(§3) 5. Caliper readings: experimental data were collected on Caliper.
(§4) 6. Curve fitting: 1) conversion data were replicated from Caliper program. 2) the conversion value was converted into inhibition rate, inhibition rate %=(maximum−conversion value)/(maximum−minimum)*100, wherein “maximum” represents DMSO control, and minimum represents the low control.

The target in a further test is FGFR3 (Homo sapiens (Human), UniProt P22607). The description is as above. As to conditions: for inhibition at 1 µM: read-out: % inhibition (1 μM), FGFR3, 1 μM; for inhibition at 10 µM: read-out: % inhibition (10 μM), FGFR3, 10 μM. The method, then: as §1, §2, §3, §4
Sequence of FGFR3 (P22607 23-806, species assumed): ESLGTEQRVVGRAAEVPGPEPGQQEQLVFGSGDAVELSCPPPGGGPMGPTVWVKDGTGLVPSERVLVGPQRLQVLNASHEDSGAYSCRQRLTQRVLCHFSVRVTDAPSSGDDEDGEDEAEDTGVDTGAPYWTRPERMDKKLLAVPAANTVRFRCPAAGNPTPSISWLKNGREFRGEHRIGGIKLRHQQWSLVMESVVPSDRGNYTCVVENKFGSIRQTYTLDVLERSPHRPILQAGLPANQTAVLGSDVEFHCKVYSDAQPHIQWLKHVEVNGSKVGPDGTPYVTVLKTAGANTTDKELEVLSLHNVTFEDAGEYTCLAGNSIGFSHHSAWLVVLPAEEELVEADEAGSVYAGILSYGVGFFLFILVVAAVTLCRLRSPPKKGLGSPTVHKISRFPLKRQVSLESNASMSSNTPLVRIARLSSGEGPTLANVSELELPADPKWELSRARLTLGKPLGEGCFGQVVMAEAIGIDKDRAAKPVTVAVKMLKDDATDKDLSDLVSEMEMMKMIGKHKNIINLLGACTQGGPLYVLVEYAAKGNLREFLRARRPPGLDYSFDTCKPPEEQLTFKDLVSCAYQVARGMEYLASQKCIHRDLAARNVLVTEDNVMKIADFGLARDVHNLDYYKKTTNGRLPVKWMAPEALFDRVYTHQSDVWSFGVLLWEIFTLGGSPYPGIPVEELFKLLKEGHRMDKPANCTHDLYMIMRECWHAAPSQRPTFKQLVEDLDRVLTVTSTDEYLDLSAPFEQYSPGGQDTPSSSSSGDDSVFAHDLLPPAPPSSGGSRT
The next test deals with IGF1R (Homo sapiens (Human), UniProt P08069). The description is as above. The following applies: for inhibition at 1 µM: read-out: % inhibition (1 μM), 1 μM; for inhibition at 10 µM: read-out: % inhibition (10 μM), 10 μM. The method, then: as §1, §2, §3, §4
Another test concerns the target IKKB (Homo sapiens (Human), UniProt O14920). Described as above. The following applies: for inhibition at 1 µM: read-out: % inhibition (1 μM), 1 μM; for inhibition at 10 µM: read-out: % inhibition (10 μM), 10 μM. How it is done:
as §1, §2, §3, §4

In the next test the target is PDGFRa (Homo sapiens (Human), UniProt P16234). The test is described as above. As to conditions: for inhibition at 1 µM: read-out: % inhibition (1 μM), 1 μM; for inhibition at 10 µM: read-out: % inhibition (10 μM), 10 μM. How it is done:
as §1, §2, §3, §4

Another test concerns the target PDGFRb (Homo sapiens (Human), UniProt P09619). The test is described as above. The following applies: for inhibition at 1 µM: read-out: % inhibition (1 μM), 1 μM; for inhibition at 10 µM: read-out: % inhibition (10 μM), 10 μM. How it is done:
as §1, §2, §3, §4

A further test deals with SRC (Homo sapiens (Human), UniProt P12931). The description is as above. The following applies: for inhibition at 1 µM: read-out: % inhibition (1 μM), 1 μM; for inhibition at 10 µM: read-out: % inhibition (10 μM), 10 μM. How it is done: as §1, §2, §3, §4
Sequence of SRC (P12931 whole entry, looked up, species assumed): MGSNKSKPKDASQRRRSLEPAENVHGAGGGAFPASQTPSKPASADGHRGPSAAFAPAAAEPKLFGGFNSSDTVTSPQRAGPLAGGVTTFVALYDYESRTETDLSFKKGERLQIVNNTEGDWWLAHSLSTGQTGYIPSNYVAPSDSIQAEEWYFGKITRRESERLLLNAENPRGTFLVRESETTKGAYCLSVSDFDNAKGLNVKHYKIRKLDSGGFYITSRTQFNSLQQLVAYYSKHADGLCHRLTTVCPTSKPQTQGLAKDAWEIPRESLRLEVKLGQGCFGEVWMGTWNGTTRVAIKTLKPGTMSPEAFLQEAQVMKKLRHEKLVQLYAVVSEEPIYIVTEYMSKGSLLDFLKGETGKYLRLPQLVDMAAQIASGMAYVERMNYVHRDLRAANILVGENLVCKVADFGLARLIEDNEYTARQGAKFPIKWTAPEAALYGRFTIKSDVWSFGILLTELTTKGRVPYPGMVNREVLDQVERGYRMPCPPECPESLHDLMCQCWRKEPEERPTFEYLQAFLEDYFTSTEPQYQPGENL
The next test concerns the target cKit (Homo sapiens (Human), UniProt P10721). The test is described as above. The following applies: for inhibition at 1 µM: read-out: % inhibition (1 μM), 1 μM; for inhibition at 10 µM: read-out: % inhibition (10 μM), 10 μM. How it is done:
as §1, §2, §3, §4

For the next test, the target named is BRAF (Homo sapiens (Human), UniProt P15056). Nature of the test: Kinase selectivity analysis (BRAF analysis). The following applies: for inhibition at 1 µM: read-out: % inhibition (1 μM), 1 μM; for inhibition at 10 µM: read-out: % inhibition (10 μM), 10 μM. The method, then: as §1
Sequence of BRAF (P15056 whole entry, species assumed): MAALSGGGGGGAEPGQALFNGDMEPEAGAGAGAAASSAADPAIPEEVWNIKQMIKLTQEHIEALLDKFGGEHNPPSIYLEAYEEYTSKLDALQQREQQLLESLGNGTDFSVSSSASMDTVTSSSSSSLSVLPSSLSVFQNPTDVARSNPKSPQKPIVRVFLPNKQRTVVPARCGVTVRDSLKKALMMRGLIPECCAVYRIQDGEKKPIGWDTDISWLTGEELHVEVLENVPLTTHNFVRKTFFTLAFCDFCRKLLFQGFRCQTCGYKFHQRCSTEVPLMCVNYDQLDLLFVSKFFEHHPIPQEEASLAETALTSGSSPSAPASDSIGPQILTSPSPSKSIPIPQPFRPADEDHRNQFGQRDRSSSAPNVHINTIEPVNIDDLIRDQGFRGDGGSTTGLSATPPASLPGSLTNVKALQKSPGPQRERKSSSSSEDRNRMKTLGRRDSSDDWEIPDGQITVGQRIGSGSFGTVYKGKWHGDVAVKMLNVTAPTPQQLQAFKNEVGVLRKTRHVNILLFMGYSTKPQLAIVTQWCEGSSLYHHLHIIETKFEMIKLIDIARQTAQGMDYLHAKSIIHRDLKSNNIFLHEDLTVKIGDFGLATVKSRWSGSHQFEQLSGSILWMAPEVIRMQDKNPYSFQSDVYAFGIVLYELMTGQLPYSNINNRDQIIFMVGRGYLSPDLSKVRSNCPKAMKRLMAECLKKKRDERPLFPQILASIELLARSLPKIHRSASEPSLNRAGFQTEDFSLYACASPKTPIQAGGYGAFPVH
1. Preparation of 1× Kinase Buffer: 50 mM HEPES, pH 7.5, 10 mM MgCl2, 1 mM EGTA, 0.01% BRIJ-35.
2. Preparation of compounds for BRAF kinase test: 1) serial dilution of compound and preparation of stock solution plate. The compound was diluted in 100% DMSO to a concentration, which was 100 times of the highest concentration used in reaction, and 100 μL of the compound solution as said above was transferred into wells of 96-well plate. 30 μL of compound solution was transferred into 60 μL of 100% DMSO in the adjacent well, and the above operation was repeated for sequentially diluting the compound. 100 μL of 100% DMSO was added into two blank wells as no-compound and no-enzyme control, the plate was marked as stock solution plate. 2) Preparation of temporary plate. 4 μL of compound solution from the stock solution plate was transferred to another 96-well plate, 96 μL of 1× kinase buffer was added into each well, and the temporary plate was placed on a shaker and shaken for 10 mins for uniformly mixing the compound. 3) Preparation of assay plate. 2.5 μL of solution from each well of the 96-well temporary plate was added into a 384-well plate, and the experiment was independently repeated.
3. Kinase BRAF reaction: 1) Preparation of 2× kinase solution. BRAF solution was prepared in 1× kinase buffer, the concentration of which was 2 times of the final concentration in the test. 5 μL of kinase solution was added into each well of the assay plate (except for control well, into which 5 μL of 1× kinase buffer was added), and the assay plate was shaken. 2) Preparation of 4× substrate solution. Fluorescein-MAP2K1, ATP substrate solution was prepared in 1× kinase buffer, the concentration of which was 4 times of the final concentration in the test. 2.5 μL of substrate solution was added into each well of the assay plate to start the reaction, and the assay plate was shaken. 3) The kinase reaction was conducted by incubating at room temperature for 1 hour.
4. Kinase assay. Test solution was prepared in antibody dilution buffer, the concentration of which was 2 times of the following final concentration: antibody 2 nM, EDTA […]. 10 μL of test solution was added into each well of the assay plate to quench the assay. […]
5. Read data: the data was read on Envision (excitation at 340 nm, emission at 520 nm, […]).
6. […] The rate of RFU […] was calculated and converted into inhibition rate % Inhibition rate %=(maximum−rate of sample)/(maximum−minimum)*100, wherein “maximum” represents DMSO control rate, and “minimum” represents the no-enzyme control rate. […]

As usually defined, the inhibition is the relative decrease from the control value, in per cent.

Sequence of PDGFRa (P16234 24-1089, species assumed): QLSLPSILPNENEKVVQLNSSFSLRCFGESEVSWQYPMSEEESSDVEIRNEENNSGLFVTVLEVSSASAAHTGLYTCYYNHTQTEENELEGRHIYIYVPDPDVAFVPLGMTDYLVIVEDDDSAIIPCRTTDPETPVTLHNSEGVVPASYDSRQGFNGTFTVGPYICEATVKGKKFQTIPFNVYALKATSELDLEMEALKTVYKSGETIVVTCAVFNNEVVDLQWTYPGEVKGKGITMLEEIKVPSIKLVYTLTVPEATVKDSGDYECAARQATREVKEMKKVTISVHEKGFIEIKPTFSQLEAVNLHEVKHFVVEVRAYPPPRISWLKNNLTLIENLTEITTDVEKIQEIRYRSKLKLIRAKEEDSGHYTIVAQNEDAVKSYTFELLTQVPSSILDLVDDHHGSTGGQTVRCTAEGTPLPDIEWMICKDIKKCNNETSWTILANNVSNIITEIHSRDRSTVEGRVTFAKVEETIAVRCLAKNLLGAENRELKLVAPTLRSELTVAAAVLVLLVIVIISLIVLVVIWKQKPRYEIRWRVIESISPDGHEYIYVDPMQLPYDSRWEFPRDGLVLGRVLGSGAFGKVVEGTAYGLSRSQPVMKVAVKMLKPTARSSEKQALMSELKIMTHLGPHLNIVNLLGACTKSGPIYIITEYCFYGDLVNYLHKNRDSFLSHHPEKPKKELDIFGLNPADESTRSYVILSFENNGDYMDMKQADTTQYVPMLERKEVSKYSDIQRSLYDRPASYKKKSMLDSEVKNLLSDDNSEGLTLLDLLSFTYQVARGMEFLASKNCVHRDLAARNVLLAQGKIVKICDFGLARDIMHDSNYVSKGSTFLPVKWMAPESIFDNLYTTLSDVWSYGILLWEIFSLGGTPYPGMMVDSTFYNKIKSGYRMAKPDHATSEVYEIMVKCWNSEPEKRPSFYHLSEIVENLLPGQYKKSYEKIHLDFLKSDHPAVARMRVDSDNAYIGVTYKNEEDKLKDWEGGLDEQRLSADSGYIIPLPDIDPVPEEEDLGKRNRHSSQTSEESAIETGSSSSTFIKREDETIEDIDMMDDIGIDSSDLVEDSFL
Sequence of cKit (P10721 26-976): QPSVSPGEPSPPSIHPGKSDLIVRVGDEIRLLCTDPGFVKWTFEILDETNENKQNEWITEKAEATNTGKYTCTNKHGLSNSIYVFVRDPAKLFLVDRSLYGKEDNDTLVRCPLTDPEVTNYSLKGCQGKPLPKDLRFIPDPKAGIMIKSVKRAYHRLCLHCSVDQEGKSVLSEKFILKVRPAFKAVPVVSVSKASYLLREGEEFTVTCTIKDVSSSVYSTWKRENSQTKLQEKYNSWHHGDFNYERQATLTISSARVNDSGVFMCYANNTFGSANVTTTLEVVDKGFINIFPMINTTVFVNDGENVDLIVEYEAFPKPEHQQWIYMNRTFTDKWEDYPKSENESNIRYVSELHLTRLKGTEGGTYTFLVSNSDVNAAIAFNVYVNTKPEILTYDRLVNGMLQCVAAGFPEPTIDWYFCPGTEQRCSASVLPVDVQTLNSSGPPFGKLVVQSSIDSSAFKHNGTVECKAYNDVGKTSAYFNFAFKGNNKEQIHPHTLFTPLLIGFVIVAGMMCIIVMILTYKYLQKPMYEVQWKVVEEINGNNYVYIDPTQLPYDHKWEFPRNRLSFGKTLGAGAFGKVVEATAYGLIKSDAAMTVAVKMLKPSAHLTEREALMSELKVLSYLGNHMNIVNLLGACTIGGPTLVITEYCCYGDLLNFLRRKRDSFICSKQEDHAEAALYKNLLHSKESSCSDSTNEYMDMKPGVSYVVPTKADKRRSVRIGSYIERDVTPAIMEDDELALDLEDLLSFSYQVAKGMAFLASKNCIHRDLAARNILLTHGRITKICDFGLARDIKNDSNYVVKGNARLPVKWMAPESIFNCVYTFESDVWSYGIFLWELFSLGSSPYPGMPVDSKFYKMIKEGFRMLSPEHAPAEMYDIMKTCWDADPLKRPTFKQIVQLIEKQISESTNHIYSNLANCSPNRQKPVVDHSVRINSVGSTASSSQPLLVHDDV

As to `C=CC(=O)Nc1cccc(-n2c(=O)cnc3cnc(Nc4ccc(N5CCN(C)CC5)cc4)nc32)c1` [Compound 020, N-(3-(2-(4-(4-methyl-1-piperazinyl)-phenylamino)-7-oxo-8(7H)-pteridin-yl)phenyl) acrylamide], the IC50 was 0.824 nM on EGFR-L858R/T790M, under 14 nM on BLK and 322 nM at FLT3. Also, the inhibition at 1 µM came out at 1.3% on ERK1; 14% on FGFR3; 21% at IGF1R; 9.4% on IKKB; 4.9% on PDGFRa; 42% at PDGFRb. Further, the values for the inhibition at 1 µM at SRC, at cKit and at BRAF were 27%, -12% and -7%, respectively. For the same molecule, the inhibition at 10 µM on ERK1 turned out to be 19%; at FGFR3, 33%; at IGF1R it was 36%; at IKKB, 2%; on PDGFRa, 35%; on PDGFRb, 84%. The inhibition at 10 µM at SRC is 72%; at cKit, -3.2%; at BRAF, 21%.

As for `C=CC(=O)Nc1cccc(-n2c(=O)cnc3cnc(Nc4ccc(N5CCN(C)CC5)cc4OC)nc32)c1` [Compound 032, N-(3-(2-(2-methoxy-4-(4-methyl-1-piperazinyl)-phenylamino)-7-oxo-8(7H)-pteridin-yl)phenyl)acrylamide], the IC50 on EGFR-L858R/T790M amounted to 1.17 nM; on BLK, 463 nM; at FLT3, 1170 nM. The inhibition at 1 µM is 11% on ERK1; 11% on FGFR3; 15% on IGF1R; -3.3% at IKKB; 1.2% on PDGFRa; 14% at PDGFRb. The inhibition at 1 µM was 6.6% at SRC, -9.3% at cKit and 0.35% on BRAF. Further, the inhibition at 10 µM on ERK1 is -4%; on FGFR3 it was 13%; on IGF1R it was 37%; at IKKB, -4.3%; on PDGFRa, 18%; on PDGFRb, 61%. Further, the inhibition at 10 µM at SRC was 33%; on cKit, -4.8%; at BRAF it was -5.2%.
